Test results from patent EP2902035B1, “Cell-permeable peptide inhibitors of the JNK signal transduction pathway for use in the treatment of inflammatory eye diseases” (Xigen Inflammation Ltd., priority 2010, dated 2012).

Tested on: c-Jun phosphorylation (JNK pathway)
Test: Western-Blot analysis of c-Jun phosphorylation in RPE/choroid in EIU
Type: in vivo, Lewis rats
Details: for relative band intensity for phospho c-Jun in comparison to tubulin (densitometry): EIU
Experimental: Retinas and RPE/choroid/sclera complexes were carefully dissected out on enucleated eyes, snap frozen and stored at -80°C until being used for RT-PCR and Western-Blot analyses.
Retinas and RPE/choroid/sclera complexes were also collected at 24 hours to analyze iNOS mRNA levels by RT-PCR and c-Jun phosphorylation state by Western-Blot. Tissues were collected only from eyes treated by IV (intravenous) injection of vehicle, IV injection of the JNK-inhibitor (poly-)peptide of SEQ ID NO: 11, IVT (intravitreal) injection of vehicle and IVT injection of the JNK-inhibitor (poly-)peptide of SEQ ID NO: 11 (n=2 eyes per condition collected from separate rats). Eyes were selected so that their EIU clinical score was representative of the mean of the experimental group they belong to, i.e 3 for eyes treated by IV and IVT injection of vehicle and 2 for eyes treated by IV or IVT injection of the JNK-inhibitor (poly-)peptide of SEQ ID NO: 11.
RPE/choroid/sclera complexes and neuroretinas (2 per experimental group) were snap frozen immediately after dissection and stored at -80°C until use. Tissues were homogenized in 500 µL of lysis buffer (MOPS SDS Running Buffer, Invitrogen, Cergy-Pontoise, France) supplemented with protease inhibitor cocktail (Roche Diagnostics, Meylan, France) (one tablet for 50 mL). After addition of LDS Sample Buffer (Invitrogen) and heating for 5 min at 100°C, equal amounts of proteins were subjected to electrophoresis in a NuPAGE 4-12% Bis-Tris gel (Invitrogen) using MOPS SDS Running Buffer. The bands obtained were then electrotransferred onto nitrocellulose membranes (Schleicher & Schuell BioScience, Dassel, Germany).
Western-blot analyses were carried out to analyze the effect of the JNK-inhibitor (poly-)peptide of SEQ ID NO: 11 on the three mitogen-activated protein kinase (MAPK) pathways. To analyze the JNK pathway, blots were sequentially incubated with a rabbit Phospho-c-Jun (Ser63) primary antibody (or Phospho-c-Jun (Ser73) antibody) and an anti-rabbit IgG HRP-linked secondary antibody according to the manufacturer's instruction (PhosphoPlus c-Jun (Ser63) II and c-Jun (Ser73) antibody kit (9260) purchased from Cell Signaling Technology (Ozyme, St Quentin Yvelines, France)). Bands were visualized using the ECL Western Blotting Detection Reagents Kit (Amersham Biosciences, Orsay, France). […] The relative band intensity for phospho c-Jun (Ser 63 or Ser73) was calculated in comparison to that for -tubulin after densitometry analysis (ImageJ software).

## CC(C)C[C@@H](NC(=O)[C@@H](Cc1ccccc1)NC(=O)[C@H]1CCCN1C(=O)[C@@H](CCC(N)=O)NC(=O)[C@H](NC(=O)[C@H]1CCCN1C(=O)[C@@H](CCCNC(=N)N)NC(=O)[C@@H](CO)NC(=O)[C@@H](CCC(N)=O)NC(=O)[C@H](N)CC(=O)O)C(C)C)C(=O)N[C@H](CC(N)=O)C(=O)N[C@H](CC(C)C)C(=O)N[C@@H](C(=O)N[C@@H](C(=O)N1CCC[C@@H]1C(=O)N[C@H](CCCNC(=N)N)C(=O)N[C@H](CCCCN)C(=O)N1CCC[C@@H]1C(=O)N[C@H](CCCNC(=N)N)C(=O)N1CCC[C@@H]1C(=O)N1CCC[C@@H]1C(=O)N[C@H](CCCNC(=N)N)C(=O)N[C@H](CCCNC(=N)N)C(=O)N[C@H](CCCNC(=N)N)C(=O)N[C@H](CCC(N)=O)C(=O)N[C@H](CCCNC(=N)N)C(=O)N[C@H](CCCNC(=N)N)C(=O)N[C@H](CCCCN)C(=O)N[C@H](CCCCN)C(=O)N[C@H](CCCNC(=N)N)C(=O)NCC(=O)O)[C@H](C)O)[C@H](C)O [SEQ ID NO: 11]
RPE/ choroid extracts, 24 hours after intravenous or intravitreous injection
  Phosphorylation of c-Jun on Ser63 and Ser73 residues: reduced
RPE/ choroid, 24 hours after IV (20 µg/kg)
  relative band intensity for phospho c-Jun in comparison to tubulin (densitometry): 0.28 ± 0.01
RPE/ choroid, 24 hours after IVT (0.2 µg/injection)
  relative band intensity for phospho c-Jun in comparison to tubulin (densitometry): 0.35 ± 0.08
RPE/ choroid, after IV or IVT administration, versus vehicle
  decrease in c-Jun phosphorylation: approximately 3 fold
